This assay has as its target T1, human 5HT2c receptor (Homo sapiens, UniProt P28335, I156V/I160V, form not given).
T1 sequence (P28335 1-458 I156V/N158S/I160V): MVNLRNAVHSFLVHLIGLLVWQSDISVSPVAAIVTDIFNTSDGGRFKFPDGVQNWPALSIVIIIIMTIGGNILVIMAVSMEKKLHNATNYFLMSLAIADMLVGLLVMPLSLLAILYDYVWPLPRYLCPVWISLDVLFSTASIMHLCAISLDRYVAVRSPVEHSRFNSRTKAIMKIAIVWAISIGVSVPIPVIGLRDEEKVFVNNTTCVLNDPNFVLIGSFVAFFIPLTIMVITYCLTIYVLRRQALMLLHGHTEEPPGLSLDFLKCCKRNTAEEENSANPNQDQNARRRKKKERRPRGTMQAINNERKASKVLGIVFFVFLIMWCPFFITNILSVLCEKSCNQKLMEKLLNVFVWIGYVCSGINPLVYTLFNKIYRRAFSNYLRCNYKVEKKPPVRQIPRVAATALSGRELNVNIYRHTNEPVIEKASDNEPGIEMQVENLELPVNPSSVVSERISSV
The experiment in a line: Calcium mobilization (FLIPR) 5HT2c receptor agonist assay in HEK 293 EBNA cells. Type of assay: cell-based. The conditions noted are these: agonist-stimulated calcium release, HEK 293 EBNA cells expressing human 5HT2c receptor, read-out: 5-HT2c EC50 (hVSV). A general note: Calcium flux is commonly read through the fluorescence of an indicator in the cells.

With `O=S(=O)(c1cc2c(s1)CCNCC2)N1CCCC1` [Example 26, 2-(Pyrrolidine-1-sulfonyl)-5,6,7,8-tetrahydro-4H-thieno[2,3-d]azepine], the EC50 was below 10 nM.

Broadly, the EC50 is the concentration at which the effect is half-maximal.

The values are drawn from patent publication US7718647B2, “Substituted azepine derivatives as serotonin receptor modulators” (Athersys, Inc., priority 2004, dated 2010).
